# Experimental data reported in patent US20190150447A1, “CONDENSED HETEROCYCLIC COMPOUND” (Sumitomo Chemical Company, Limited, priority 2015, published 2019).
# Legend:
# Assay type in all cases: in vivo
# [1] = tested on: cotton aphid (Aphis gossypii); assay: Test Example 1: foliar spray on cucumber seedling against cotton aphid; conditions: 500 ppm; spray 10 mL/seedling on cucumber; all stages of life; after 5 days
# Method: The test compounds is made to a formulation according to the method described in the Formulation Example 5, and thereto is added water containing 0.03 v/v % of a spreader to prepare a diluted solution containing a prescribed concentration of the test compound. Cucumber (Cucumis sativus) seedling (on the developmental stage of the second true leaf) is planted in a plastic cup, and approximately 30 heads of cotton aphid (Aphis gossypii) (all stages of life) are released onto the leaves of the cucumber. After 1 day, the diluted solutions were sprayed into the seedling in a ratio of 10 mL/seedling. After 5 days, the number of the surviving insects is examined and the controlling value is calculated by the following equation. Controlling value (%)={1−(Cb×Tai)/(Cai×Tb)}×100 wherein the symbols in the equation represent the following descriptions. Cb: Number of the test insects in untreated group; Cai: Number of the surviving insects at the time of the investigation in untreated group; Tb: Number of the test insects in treated group; Tai: Number of the surviving insects at the time of the investigation in treated group; Here the “untreated group” represents a group where the similar treatment procedure to that of the treated group except not using the test compound is done.
# [2] = tested on: brown planthopper (Nilaparvata lugens); assay: Test Example 2: foliar spray on rice seedling against brown planthopper; conditions: 144 h, spray 10 mL/seedling on rice, 3rd instar larvae, after 6 days, read-out: mortality of insects
# Method: (§1) The test compound is made to a formulation according to the method described in the Formulation Example 5, and thereto is added water containing 0.03 v/v % of a spreader to prepare a diluted solution containing a prescribed concentration of the test compound.
# Rice (Oryza sativa) seedling (on the developmental stage of the second true leaf) is planted in a plastic cup, and the diluted solutions are sprayed into the seedling in a ratio of 10 mL/seedling. Thereafter, 20 heads of 3rd instar larvae of brown planthopper (Nilaparvata lugens) are released onto the rice leaves. After 6 days, the morality is calculated by the following equation.
# Morality (%)={1−the number of the surviving insects/20}×100
# [3] = tested on: cabbage moth (Plutella xylostella); assay: Test Example 3: foliar spray on cabbage seedling against cabbage moth; conditions: 120 h, spray 20 mL/seedling on cabbage, second instar larvae, after 5 days, read-out: mortality of insects
# Method: as §1
# The diluted solutions are sprayed into the cabbage (Brassicae oleracea) seedling (on the developmental stage of the second to third true leaf) that is planted in a container in a ratio of 20 mL/seedling. Thereafter, the stem and leaf thereof is cut out and then is installed into the container that is covered with the filter paper. Five (5) heads of cabbage moth (Plutella xylostella) at the second instar larval stages are released into the cup. After 5 days, the surviving insects are counted, and the mortality of insects is calculated by the following equation.
# Morality (%)={1−the number of the surviving insects/5}×100
# [4] = tested on: housefly (Musca domestica); assay: Test Example 4: filter paper/sucrose bait test against housefly; conditions: 0.7 mL on filter paper, female adult, after 24 hours, read-out: mortality of insects
# Method: (§2) The test compound is made to a formulation according to the method described in the Formulation Example 5, and thereto is added water to prepare a diluted solution containing a prescribed concentration of the test compound.
# The bottom of the plastic cup having 5.5 cm diameter is matted with the same size of a filter paper, and 0.7 mL of the diluted solution is added dropwise to the filter paper, and 30 mg sucrose as bait is placed in the cup uniformly. Ten (10) heads of female adult housefly (Musca domestica) are released into the plastic cup, and the cup is covered with the lid. After 24 hours, the life and death of housefly is examined and the mortality of insects is determined. The mortality of insects is calculated by the following equation.
# (§3) Mortality of insects (%)=(Number of dead insects/Number of test insects)×100
# [5] = tested on: German cockroach (Blattella germanica); assay: Test Example 5: filter paper/sucrose bait test against German cockroach; conditions: 144 h, 0.7 mL on filter paper, male, after 6 days, read-out: mortality of insects
# Method: as §2
# The bottom of the plastic cup having 5.5 cm diameter is matted with the same size of a filter paper, and 0.7 mL of the diluted solution is added dropwise to the filter paper, and 30 mg sucrose as bait is placed in the cup uniformly. Two (2) heads of male German cockroach (Blattella germanica) are released into the plastic cup, and the cup is covered with the lid. After 6 days, the life and death of German cockroach is examined and the number of died insects is counted, and the mortality of insects is calculated by the following equation.
# as §3
# [6] = tested on: common house mosquito (Culex pipiens pallens); assay: Test Example 6: larvae released into diluted solution, common house mosquito; conditions: 24 h, last instar larvae in diluted solution, after 1 day, read-out: mortality of insects
# Method: as §2
# Thirty (30) heads of last instar larvae of common house mosquito (Culex pipiens pallens) are released into the diluted solutions and after 1 day, the life and dead of common house mosquito is examined, and the mortality of insects is calculated by the following equation.
# Mortality of insects (%)=((Number of dead insects/Numboer of test insects)×100
smiles,measurement,setting,value
CCS(=O)(=O)c1ccc(-n2cncn2)nc1-c1nc2cc(C(F)(F)F)ncc2n1C [Present compound 1],controlling value,[1],100%
same,mortality at 500 ppm,[2],100%
same,mortality at 500 ppm,[3],100%
same,mortality at 500 ppm,[4],100%
same,mortality at 500 ppm,[5],100%
same,mortality at 3.5 ppm,[6],91%
